These are literature values, as cited in US9616027B2, “Pramipexole sustained release tablet formulation and manufacturing method thereof and use thereof” (SHIJIAZHUANG RAPISTEP PHARMACEUTICAL TECHNOLOGY R&D INC., priority 2013, dated 2017).

Where two headings read alike, the source gives them in different places.

The conditions of data set [1]: in vivo.
Experiment in data set [2]: not given
The source holds these as a separate data set.

Data set [3] has as its system patients with advanced Parkinson's disease. The following applies: with levodopa.

For `CCCN[C@H]1CCc2nc(N)sc2C1` [Pramipexole, (S)-2-Amino-4,5,6,7-tetrahydro-6-(propylamino) benzothiazole], the “solubility in a pH 2 to pH 7.4 buffer media” value (pH 2 to pH 7.4 buffer media) was “higher than 10 mg/ml”. For the same compound, the Water-solubility entry (water) is listed as “greater than 20 mg/ml”. For the same compound, in data set [1], the “effect of food intake on absorption” value is listed as “Food intake shall influence absorption”. Moreover, the kinetic characteristics entry in data set [1] is given as “linear kinetic characteristics”. The “crystal modification (monohydrate) under grinding” value in data set [2] (grinding) is on record as “does not change under grinding”. Also, the “stability in the solid state” value in data set [2] (solid state) is reported as “very stable”. For the same compound, the “stability of solution to light” value in data set [2] (solution) was “light sensitive”. The UPDRS score was −11.0 in data set [3] (0.375 mg increased to 4.5 mg, 18 weeks of treatment) and −11.1 in data set [3] (33 weeks of treatment). Besides, the “regulation change of the "off" state” value in data set [3] (18 weeks of treatment) was -2.1 h.
